Source: PubChem BioAssay AID248 (DTP/NCI, 2004)
Inconclusive results and toxic doses are left out. No stated cut-off is given here; in the data, active means T/C of 150% or more; inactive means T/C below 125%.

System: L1210 leukemia ip in BDF1 mice, survival T/C
Experiment: NCI In Vivo Anticancer Drug Screen. Data for tumor model L1210 Leukemia (intraperitoneal) in B6D2F1 (BDF1) mice
Details: endpoint: mean survival time, higher = longer survival
Method in brief: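 Transplantable tumor model; survival measured in treated vs vehicle control mice. Value = treated/control.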

[1] = dose: 100.0 mg/kg/injection, schedule: Q04DX003 (ip), vehicle: saline with Tween-80
[2] = dose: 100.0 mg/kg/injection, schedule: Q04DX003 (ip), vehicle: saline
[3] = dose: 200.0 mg/kg/injection, schedule: Q04DX003 (ip), vehicle: saline
[4] = dose: 100.0 mg/kg/injection, schedule: Q01DX001 (ip), vehicle: saline
[5] = dose: 200.0 mg/kg/injection, schedule: Q01DX001 (ip), vehicle: saline
[6] = dose: 400.0 mg/kg/injection, schedule: Q01DX001 (ip), vehicle: saline
[7] = dose: 100.0 mg/kg/injection, schedule: Q01DX009 (ip), vehicle: Klucel (hydroxypropylcellulose) (HPC)
[8] = dose: 200.0 mg/kg/injection, schedule: Q01DX009 (ip), vehicle: Klucel (hydroxypropylcellulose) (HPC)
[9] = dose: 400.0 mg/kg/injection, schedule: Q01DX009 (ip), vehicle: Klucel (hydroxypropylcellulose) (HPC)
[10] = dose: 100.0 mg/kg/injection, schedule: Q04DX003 (ip), vehicle: Klucel (hydroxypropylcellulose) (HPC)
[11] = dose: 200.0 mg/kg/injection, schedule: Q04DX003 (ip), vehicle: Klucel (hydroxypropylcellulose) (HPC)
[12] = dose: 400.0 mg/kg/injection, schedule: Q04DX003 (ip), vehicle: Klucel (hydroxypropylcellulose) (HPC)

Measured: T/C

CC1(C)N=C(N)N=C(N)N1c1ccc(Cl)c(C(F)(F)F)c1
inactive: dose: 8.33 mg/kg/injection, schedule: Q01DX009 (ip), vehicle: saline with Tween-80 115 % of control | dose: 8.8 mg/kg/injection, schedule: Q04DX003 (ip), vehicle: saline with Tween-80 107 % of control | dose: 12.5 mg/kg/injection, schedule: Q01DX009 (ip), vehicle: saline with Tween-80 118 % of control | dose: 13.3 mg/kg/injection, schedule: Q04DX003 (ip), vehicle: saline with Tween-80 104 % of control | dose: 20.0 mg/kg/injection, schedule: Q04DX003 (ip), vehicle: saline with Tween-80 101 % of control | dose: 25.0 mg/kg/injection, schedule: Q01DX009 (ip), vehicle: saline with Tween-80 116 % of control | dose: 30.0 mg/kg/injection, schedule: Q04DX003 (ip), vehicle: saline with Tween-80 106 % of control | dose: 33.0 mg/kg/injection, schedule: Q01DX009 (ip), vehicle: saline with Tween-80 118 % of control | dose: 45.0 mg/kg/injection, schedule: Q04DX003 (ip), vehicle: saline with Tween-80 115 % of control | dose: 50.0 mg/kg/injection, schedule: Q01DX009 (ip), vehicle: saline with Tween-80 98 % of control | [1] 108 % of control

COC(=O)Cc1cc(=O)c2cc(C)ccc2[nH]1
inactive: dose: 50.0 mg/kg/injection, schedule: Q01DX009 (ip), vehicle: acetone 94 % of control | dose: 100.0 mg/kg/injection, schedule: Q01DX009 (ip), vehicle: acetone 101 % of control | [2] 94 % of control | dose: 200.0 mg/kg/injection, schedule: Q01DX009 (ip), vehicle: acetone 97 % of control | [3] 94 % of control | dose: 400.0 mg/kg/injection, schedule: Q04DX003 (ip), vehicle: saline 94 % of control

CC(C)=NN
inactive: [4] 105 % of control | [5] 98 % of control | [6] 100 % of control

Cc1ccc(S(=O)(=O)/N=S(/C)c2ccccc2)cc1 (stereo not given)
inactive: dose: 100.0 mg/kg/injection, schedule: Q01DX009 (ip), vehicle: saline sonified 95 % of control | dose: 100.0 mg/kg/injection, schedule: Q04DX003 (ip), vehicle: saline sonified 94 % of control | dose: 200.0 mg/kg/injection, schedule: Q01DX009 (ip), vehicle: saline sonified 108 % of control | dose: 200.0 mg/kg/injection, schedule: Q04DX003 (ip), vehicle: saline sonified 106 % of control | dose: 400.0 mg/kg/injection, schedule: Q01DX009 (ip), vehicle: saline sonified 97 % of control | dose: 400.0 mg/kg/injection, schedule: Q04DX003 (ip), vehicle: saline sonified 103 % of control

O=C1c2ccccc2C(=O)N1CCCn1c2ccccc2c2cnccc21
inactive: dose: 100.0 mg/kg/injection, schedule: Q01DX009 (ip), vehicle: saline with Tween-80 101 % of control | [1] 103 % of control | dose: 200.0 mg/kg/injection, schedule: Q01DX009 (ip), vehicle: saline with Tween-80 104 % of control | dose: 200.0 mg/kg/injection, schedule: Q04DX003 (ip), vehicle: saline with Tween-80 95 % of control | dose: 400.0 mg/kg/injection, schedule: Q01DX009 (ip), vehicle: saline with Tween-80 104 % of control | dose: 400.0 mg/kg/injection, schedule: Q04DX003 (ip), vehicle: saline with Tween-80 92 % of control

COc1cc(C=Nc2cc(Cl)c(Cl)c(Cl)c2)ccc1N(CCCl)CCCl
inactive: dose: 15.0 mg/kg/injection, schedule: Q01DX001 (ip), vehicle: carboxymethylcellulose (CMC) 123 % of control | dose: 30.0 mg/kg/injection, schedule: Q01DX001 (ip), vehicle: carboxymethylcellulose (CMC) 121 % of control

CSc1nccc(NN=C2CCCCC2)n1
inactive: dose: 100.0 mg/kg/injection, schedule: Q01DX001 (ip), vehicle: Klucel (hydroxypropylcellulose) (HPC) 98 % of control | [7] 96 % of control | dose: 200.0 mg/kg/injection, schedule: Q01DX001 (ip), vehicle: Klucel (hydroxypropylcellulose) (HPC) 94 % of control | [8] 98 % of control | dose: 400.0 mg/kg/injection, schedule: Q01DX001 (ip), vehicle: Klucel (hydroxypropylcellulose) (HPC) 91 % of control

CCCCC(=O)N/N=C/c1ccccc1OC
inactive: [4] 102 % of control | [5] 104 % of control

c1ccc(P(CCP(CCP(c2ccccc2)c2ccccc2)CCP(c2ccccc2)c2ccccc2)c2ccccc2)cc1
inactive: [7] 89 % of control | [8] 89 % of control | [9] 88 % of control

CSc1ccc(NC(=O)Nc2cc(C)cc(C)n2)cc1
inactive: [7] 94 % of control | [10] 98 % of control | [8] 94 % of control | [11] 103 % of control | [9] 87 % of control | [12] 98 % of control

C[N+](C)(C)CCOC(=O)c1ccc(CBr)c(CBr)c1
inactive: dose: 6.25 mg/kg/injection, schedule: Q01DX009 (ip), vehicle: saline 97 % of control | dose: 6.25 mg/kg/injection, schedule: Q04DX003 (ip), vehicle: saline 96 % of control | dose: 12.5 mg/kg/injection, schedule: Q01DX009 (ip), vehicle: saline 99 % of control | dose: 12.5 mg/kg/injection, schedule: Q04DX003 (ip), vehicle: saline 96 % of control | dose: 25.0 mg/kg/injection, schedule: Q01DX009 (ip), vehicle: saline 104 % of control | dose: 25.0 mg/kg/injection, schedule: Q04DX003 (ip), vehicle: saline 98 % of control

CCCCN(C)N=Nc1ccc(OCC(=O)NN)cc1
inactive: dose: 10.0 mg/kg/injection, schedule: Q01DX Z (ip), vehicle: carboxymethylcellulose (CMC) 93 % of control | dose: 15.0 mg/kg/injection, schedule: Q01DX Z (ip), vehicle: carboxymethylcellulose (CMC) 96 % of control | dose: 20.0 mg/kg/injection, schedule: Q01DX Z (ip), vehicle: carboxymethylcellulose (CMC) 91 % of control | dose: 30.0 mg/kg/injection, schedule: Q01DX Z (ip), vehicle: carboxymethylcellulose (CMC) 114 % of control | dose: 60.0 mg/kg/injection, schedule: Q01DX Z (ip), vehicle: carboxymethylcellulose (CMC) 95 % of control

CC(=O)/C=C(\C)NCC(C)N/C(C)=C/C(C)=O (stereo not given)
inactive: [4] 105 % of control | [5] 96 % of control | [6] 99 % of control

O=C(Nc1cccc2ccccc12)OCc1ccccc1
inactive: dose: 100.0 mg/kg/injection, schedule: Q04DX002 (ip), vehicle: Klucel (hydroxypropylcellulose) (HPC) 108 % of control | dose: 200.0 mg/kg/injection, schedule: Q04DX002 (ip), vehicle: Klucel (hydroxypropylcellulose) (HPC) 89 % of control | dose: 400.0 mg/kg/injection, schedule: Q04DX002 (ip), vehicle: Klucel (hydroxypropylcellulose) (HPC) 93 % of control

Cc1nc2nc(N)nc(N)c2nc1C
inactive: dose: 15.63 mg/kg/injection, schedule: Q01DX Z (ip), vehicle: carboxymethylcellulose (CMC) 103 % of control | dose: 31.25 mg/kg/injection, schedule: Q01DX Z (ip), vehicle: carboxymethylcellulose (CMC) 93 % of control | dose: 50.0 mg/kg/injection, schedule: Q01DX001 (ip), vehicle: saline 117 % of control | dose: 62.5 mg/kg/injection, schedule: Q01DX Z (ip), vehicle: carboxymethylcellulose (CMC) 91 % of control | [4] 102 % of control | dose: 125.0 mg/kg/injection, schedule: Q01DX Z (ip), vehicle: carboxymethylcellulose (CMC) 92 % of control | [5] 102 % of control | [6] 100 % of control

CCN(CC)CCOc1cc(C)c2cc(Cc3ccccc3)ccc2n1
inactive: dose: 100.0 mg/kg/injection, schedule: Q01DX001 (ip), vehicle: other 104 % of control | dose: 200.0 mg/kg/injection, schedule: Q01DX001 (ip), vehicle: other 96 % of control

CC(=O)OCC1OC(OC(C)=O)C(NC(=O)N(C)C)C(OC(C)=O)C1OC(C)=O (stereo not given)
inactive: dose: 50.0 mg/kg/injection, schedule: Q04DX003 (ip), vehicle: saline 103 % of control | [10] 101 % of control | [2] 106 % of control | [11] 103 % of control | [3] 101 % of control | [12] 103 % of control

OC(c1ccccc1)(c1ccccc1)c1nc2ccccc2[nH]1
inactive: dose: 75.0 mg/kg/injection, schedule: Q01DX009 (ip), vehicle: Klucel (hydroxypropylcellulose) (HPC) 97 % of control | dose: 150.0 mg/kg/injection, schedule: Q01DX009 (ip), vehicle: Klucel (hydroxypropylcellulose) (HPC) 87 % of control | dose: 300.0 mg/kg/injection, schedule: Q01DX009 (ip), vehicle: Klucel (hydroxypropylcellulose) (HPC) 104 % of control

Cc1cccc(C)c1NC(N)=S
inactive: [10] 98 % of control | [11] 90 % of control

CCOC(=O)Cc1nnn(C)n1
inactive: [2] 93 % of control | [3] 90 % of control
